In test [1] the target is T1, hNav1.7 (Homo sapiens (Human), UniProt Q15858). In words: Electrophysiological assay (EP), voltage clamp on Syncropatch 384PE. The class given is cell-based. Particulars: CHO cells expressing Nav1.7, holding potential −50 mV, 7.5 min compound incubation; read-out: EP_SP hNav1.7 EVO IC50. An excerpt:
Example 39C. Electrophysiological Assay (EP) (In Vitro Assay)
Patch voltage clamp electrophysiology allows for the direct measurement and quantification of block of voltage-gated sodium channels (NaV's), and allows the determination of the time- and voltage-dependence of block which has been interpreted as differential binding to the resting, open, and inactivated states of the sodium channel (Hille, B., Journal of General Physiology (1977), 69: 497-515).
The following voltage clamp electrophysiology studies were performed on representative compounds using cells heterologously expressing Nav1.7 or Nav1.5 channels. cDNAs for Nav1.7 (NM_002977) and Nav1.5 (AC137587) were stably expressed in Chinese Hamstr Ovary (CHO) cells and CHL (Chinese Hamster Lung) cells respectively. Sodium currents were measured in the whole-cell configuration using Syncropatch 384PE (Nanlon Technologies, Germany). 1NPC®-384 chips with custom medium resistance and single hole mode are used. Internal solution consists of (in mM): 110 […], 10 CsCl, 20 EGTA, and 10 Hepes (pH adjusted to 7.2); and external solution contains (in mM): 60 NMDG, 80 NaCl, 4 KCl, 1 MgCl2, 2 CaCl2, 2 D-Glucose monohydrate, 10 Hepes (pH adjusted to 7.4 with NaOH).
After system flushing, testing compounds are dissolved in external solution containing 0.1% Pluronic F-127. The chip is moved into the measuring head and the instrument primes the chip with external and internal solutions. 10 l cells are added to the chip from a cell hotel, and a negative pressure of −50 mBar is applied to form a seal. Following treatment with seal enhancer solution and wash-off with external solution, negative pressure of −250 mbar is applied for 1 second to achieve the whole-cell configuration, followed by three washing steps in external solution. 20 µl of compounds is added to 40 µl in each well (1:3 dilution of compounds), and after mixing, 20 l is removed so the volume is retained at 40 ul. After approximately 13 minutes recordings, 20 µl/well of 2 uM TTX, or 333 uM Tetracaine (for Nav1.5) is added to achieve full block.
For voltage protocol, an holding potential of −50 mV is applied during the whole experiment. A depolarizing step is applied to −10 mV for 10 ms, followed by a hyperpolarization step to −150 mV for 20 ms to allow channel recovery from inactivation. A second depolarizing step is applied from −150 mV to −10 mV for 10 ms, where currents were measured to derive blocking effects of compounds. Inhibition is determined based on 7.5 min of compound incubation.

In test [2] the target is T1, hNav1.7. In words: Tritiated compound binding to membranes from cells heterologously expressing hNav1.7 and the β1 subunit (LBA). Particulars: competitive binding vs [3H]compound, membranes with hNav1.7 and β1 subunit; read-out: Nav1.7 LBA EVO IC50. Here is the method:
Example 39A. Tritiated Compound Binding to Membranes Isolated from Cells that Heterologously Express hNav1.7 and the β1 Subunit
Preparation of membranes containing recombinantly expressed sodium channels: Frozen recombinant cell pellets were thawed on ice and diluted to 4 times the cell pellet weight with ice cold 50 mM Tris HCl, pH 7.4 buffer. The cell suspensions were homogenized on ice using a motorized glass dounce homogeniser. Homogenates were further diluted 8.4 times with ice cold 50 mM Tris HCl, pH 7.4 buffer and then centrifuged at 200×g at 4° C. for 15 min. The supernatants were collected and centrifuged at 10000×g at 4° C. for 50 min. The pellets were then re-suspended in 100 mM NaCl, 20 mM Tris HCl, pH 7.4 buffer containing 1% v/v protease inhibitors (Calbiochem) and re-homogenized on ice. The homogenized membranes were then processed through a syringe equipped with a 26 gauge needle. Protein concentrations were determined by Bradford Assay and the membranes were stored at −80° C.
Saturation experiments. A competitive NaV1.7 inhibitor having a methyl group was tritiated. Three tritiums were incorporated in place of methyl hydrogens to generate [^3H]compound. Binding of this radioligand was performed in 5 mL borosilicate glass test tubes at room temperature. Binding was initiated by adding membranes to increasing concentrations of [^3H]compound in 100 mM NaCl, 20 mM Tris HCl, pH 7.4 buffer containing 0.01% w/v bovine serum albumin (BSA) for 18 h. Non-specific binding was determined in the presence of 1 μM unlabeled compound. After 18 h, the reactants were filtered through GF/C glass fiber filters presoaked in 0.5% w/v polyethylene imine. Filters were washed with 15 mL ice cold 100 mM NaCl, 20 mM Tris HCl, pH7.4 buffer containing 0.25% BSA to separate bound from free ligand. [^3H]compound bound to filters was quantified by liquid scintillation counting.
Binding reactions were performed in 96-well polypropylene plates at room temperature for 18 h. In 360 μL, membranes were incubated with 100 pM [^3H]compound and increasing concentrations of Test Compound. Non-specific binding was defined in the presence of 1 μM unlabeled compound. Reactions were transferred and filtered through 96-well glass fiber/C filter plates presoaked with 0.5% polyethylene imine. The filtered reactions were washed 5 times with 200 μL ice cold buffer containing 0.25% BSA. Bound radioactivity was determined by liquid scintillation counting.
For saturation experiments, non-specific binding was subtracted from total binding to provide specific binding and these values were recalculated in terms of pmol ligand bound per mg protein. Saturation curves were constructed and dissociation constants were calculated using the single site ligand binding model: Beq=(Bmax*X)/(X+Kd), where Beq is the amount of ligand bound at equilibrium, Bmax is the maximum receptor density, Kd is the dissociation constant for the ligand, and X is the free ligand concentration. For competition studies percent inhibition was determined and IC50 values were calculated using a 4 parameter logistic model (% inhibition=(A+((B−A)/(1+((x/C)^D)))) using XLfit, where A and B are the maximal and minimum inhibition respectively, C is the IC50 concentration and D is the (Hill) slope.
Example 39B. Tritiated Compound Binding to Membranes Isolated from Cells that Heterologous Express hNav1.7 and the β1 Subunit
Following the procedure described in Example 39A, and making modifications as required to: centrifuge supernatants at 100000×g instead of 10000×g; re-suspend pellets in a buffer containing 0.01% BSA in addition to 100 mM NaCl, 20 mM Tris HCl, pH 7.4 buffer, and 1% v/v […]; and storing membranes at −80° C. in single use aliquots instead of pooled.
Saturation experiments: Following the procedure described in Example 243A, and making modifications as required to incubate [3H]compound for 3 hours instead of 18 hours. […]

In the case of `COc1cc(-c2cccc(OC(F)(F)F)c2)c(F)cc1N1C(=O)CO[C@@H]2CN(S(=O)(=O)Nc3ccon3)CC[C@H]21` [Example 29, (4aR,8aR)-1-(2-fluoro-5-methoxy-3′-(trifluoromethoxy)-[1,1′-biphenyl]-4-yl)-N-(isoxazol-3-yl)-2-oxohexahydro-1H-pyrido[3,4-b][1,4]oxazine-6(7H)-sulfonamide], the figures for the IC50 at hNav1.7 [1] and on hNav1.7 [2] were 2.21 nM and 62.3 nM, respectively.
Consider `N#Cc1cc(-c2cccc(C(F)(F)F)c2)c(F)cc1N1C(=O)CO[C@@H]2CN(S(=O)(=O)Nc3ccon3)CC[C@H]21` [Example 23, (4aR,8aR)-1-(5-cyano-2-fluoro-3′-(trifluoromethyl)-[1,1′-biphenyl]-4-yl)-N-(isoxazol-3-yl)-2-oxohexahydro-1H-pyrido[3,4-b][1,4]oxazine-6(7H)-sulfonamide], for which the values for the half-maximal inhibitory concentration (IC50) at hNav1.7 [1] and on hNav1.7 [2] were 50.1 nM and 2000 nM, respectively.
For `COc1cc(-c2cccc(C(F)(F)F)c2)c(F)cc1N1C(=O)CC[C@@H]2CN(S(=O)(=O)Nc3ccon3)CC[C@H]21` [Example 35, (4aR,8aR)-1-(2-fluoro-5-methoxy-3′-(trifluoromethyl)-[1,1′-biphenyl]-4-yl)-N-(isoxazol-3-yl)-2-oxooctahydro-1,6-naphthyridine-6(2H)-sulfonamide], in that order: 2.88 nM and 49.3 nM.
In the case of `COc1cc(-c2cccc(C(F)(F)F)c2)c(F)cc1N1CCO[C@@H]2CN(S(=O)(=O)Nc3ccncn3)CC[C@H]21` [Example 27, (4aR,8aR)-1-(2-fluoro-5-methoxy-3′-(trifluoromethyl)-[1,1′-biphenyl]-4-yl)-N-(pyrimidin-4-yl)hexahydro-1H-pyrido[3,4-b][1,4]oxazine-6(7H)-sulfonamide], the IC50 at hNav1.7 [1] stood at 2.02 nM; on hNav1.7 [2], 21.2 nM.
For `COc1cc(-c2cc(C(F)(F)F)ccc2F)c(F)cc1N1C(=O)CO[C@@H]2CN(S(=O)(=O)Nc3ccon3)CC[C@H]21` [Example 7, (4aR,8aR)-1-(2,2′-difluoro-5-methoxy-5′-(trifluoromethyl)-[1,1′-biphenyl]-4-yl)-N-(isoxazol-3-yl)-2-oxohexahydro-1H-pyrido[3,4-b][1,4]oxazine-6(7H)-sulfonamide], in that order: 5.76 nM and 167 nM.
In the case of `COc1cc(-c2cccc(OC(F)(F)F)c2)c(F)cc1N1C(=O)CO[C@H]2CN(S(=O)(=O)Nc3ccon3)CC[C@@H]21` [Example 30, (4aS,8aS)-1-(2-fluoro-5-methoxy-3′-(trifluoromethoxy)-[1,1′-biphenyl]-4-yl)-N-(isoxazol-3-yl)-2-oxohexahydro-H-pyrido[3,4-b][1,4]oxazine-6(7H)-sulfonamide], the IC50 came to 2.35 nM on hNav1.7 [1] and 35.6 nM on hNav1.7 [2].
For `COc1cc(-c2cccc(C(F)(F)F)c2)ccc1N1C(=O)CO[C@@H]2CN(S(=O)(=O)Nc3ccon3)CC[C@H]21` [Example 17, (4aR,8aR)-N-(isoxazol-3-yl)-1-(3-methoxy-3′-(trifluoromethyl)-[1,1′-biphenyl]-4-yl)-2-oxohexahydro-1H-pyrido[3,4-b][1,4]oxazine-6(7H)-sulfonamide], in that order: 6.03 nM and 214 nM.
For `N#Cc1cc(-c2cccc(C(F)(F)F)c2)c(F)cc1N1C(=O)CO[C@H]2CN(S(=O)(=O)Nc3ccon3)CC[C@@H]21` [Example 24, (4aS,8aS)-1-(5-cyano-2-fluoro-3′-(trifluoromethyl)-[1,1′-biphenyl]-4-yl)-N-(isoxazol-3-yl)-2-oxohexahydro-1H-pyrido[3,4-b][1,4]oxazine-6(7H)-sulfonamide], in that order: 237 nM and 2000 nM.
On to `COc1cc(-c2cccc(C(F)(F)F)c2)c(F)cc1N1C(=O)OC[C@@H]2CN(S(=O)(=O)Nc3ccon3)CC[C@H]21` [Example 33, (4aR,8aR)-1-(2-fluoro-5-methoxy-3′-(trifluoromethyl)-[1,1′-biphenyl]-4-yl)-N-(isoxazol-3-yl)-2-oxohexahydro-2H-pyrido[4,3-d][1,3]oxazine-6(4H)-sulfonamide], for which the IC50 is 10.4 nM at hNav1.7 [1] and 112 nM on hNav1.7 [2].
For `COc1nc(-c2cccc(C(F)(F)F)c2)c(F)cc1N1C(=O)CO[C@H]2CN(S(=O)(=O)Nc3ccon3)CC[C@@H]21` [Example 22, (4aS,8aS)-1-(5-fluoro-2-methoxy-6-(3-(trifluoromethyl)phenyl)pyridin-3-yl)-N-(isoxazol-3-yl)-2-oxohexahydro-1H-pyrido[3,4-b][1,4]oxazine-6(7H)-sulfonamide], in that order: 66.8 nM and 907 nM.
As to `COc1cc(-c2cccc(Cl)c2)c(F)cc1N1C(=O)CO[C@@H]2CN(S(=O)(=O)Nc3ccon3)CC[C@H]21` [Example 13, (4aR,8aR)-1-(3′-chloro-2-fluoro-5-methoxy-[1,1′-biphenyl]-4-yl)-N-(isoxazol-3-yl)-2-oxohexahydro-1H-pyrido[3,4-b][1,4]oxazine-6(7H)-sulfonamide], the IC50 amounted to 11.7 nM on hNav1.7 [1] and 471 nM at hNav1.7 [2].
For `COc1cc(-c2ccc(F)c(C(F)(F)F)c2)c(F)cc1N1C(=O)CO[C@H]2CN(S(=O)(=O)Nc3ccon3)CC[C@@H]21` [Example 2, (4aS,8aS)-1-(2,4′-difluoro-5-methoxy-3′-(trifluoromethyl)-[1,1′-biphenyl]-4-yl)-N-(isoxazol-3-yl)-2-oxohexahydro-1H-pyrido[3,4-b][1,4]oxazine-6(7H)-sulfonamide], in that order: 0.915 nM and 38.4 nM.

For the origin of these results see patent publication US10947251B2, “Therapeutic compounds and methods of use thereof” (GENENTECH, INC., priority 2018, dated 2021).
